Structures are written as SMILES.

A word on the IC50: it is the concentration that gives 50% inhibition.

For one test, the target named is human factor D (Homo sapiens (Human), UniProt P00746). Description: biochemical. Type of test: biochemical. To be noted: Factor D inhibition data using Method 1; recombinant human factor D 10 nM, substrate Z-Lys-thiobenzyl, fluorescence; read-out: IC50. The procedure: Human Complement Factor D Assay: Method 1
Chain of human factor D (P00746 26-253): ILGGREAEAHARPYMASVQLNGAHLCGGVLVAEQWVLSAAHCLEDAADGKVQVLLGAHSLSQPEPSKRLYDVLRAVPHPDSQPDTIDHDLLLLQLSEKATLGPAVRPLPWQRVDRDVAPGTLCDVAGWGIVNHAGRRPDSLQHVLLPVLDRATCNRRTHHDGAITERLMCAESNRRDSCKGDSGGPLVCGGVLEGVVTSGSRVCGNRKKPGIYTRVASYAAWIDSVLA
Recombinant human factor D (expressed in E. coli and purified using standard methods) at 10 nM concentration is incubated with test compound at various concentrations for 1 hour at room temperature in 0.1 M Hepes buffer, pH 7.5, containing 1 mM MgCl2, 1 M NaCl and 0.05% CHAPS. A synthetic substrate Z-Lys-thiobenzyl and 2,4-dinitrobenzenesulfonyl-fluoresceine are added to final concentrations of 200 μM and 25 μM, respectively. The increase in fluorescence is recorded at excitation of 485 nm and emission at 535 nm in a microplate spectrofluorimeter. IC50 values are calculated from percentage of inhibition of complement factor D-activity as a function of test compound concentration.
For the molecule `CC1CCCC(CNC(=O)[C@@H]2C[C@H]3C[C@H]3N2C(=O)Cn2nc(C(N)=O)c3ccncc32)C1` (single isomer, unassigned; dia 2) [Example 116], the IC50 was found to be 445 nM.

In the case of `CC(=O)c1nn(CC(=O)N2[C@@H]3C[C@@H]3C[C@H]2C(=O)NCC2CCCC(C)C2)c2cnccc12` (single isomer, unassigned; dia 2) [Example 120], the IC50 is 70 nM.

`CC1CCCC1CNC(=O)[C@@H]1C[C@H]2C[C@H]2N1C(=O)Cn1nc(C(N)=O)c2ccncc21` (single isomer, unassigned; dia 3) [Example 87]: the IC50 stood at 459 nM.

Consider `CC1CCCC(CNC(=O)[C@@H]2C[C@H]3C[C@H]3N2C(=O)Cn2nc(C(N)=O)c3ccncc32)C1` (single isomer, unassigned; dia 3) [Example 117], for which the IC50 worked out at 307 nM.

Take `CC1CCCC1CNC(=O)[C@@H]1C[C@H]2C[C@H]2N1C(=O)Cn1nc(C(N)=O)c2ccncc21` (single isomer, unassigned; dia 4) [Example 88]: the IC50 is 781 nM.

Take `CC1CCCC(CNC(=O)[C@@H]2C[C@H]3C[C@H]3N2C(=O)Cn2nc(C(N)=O)c3ccncc32)C1` (single isomer, unassigned; dia 4) [Example 118]: the IC50 amounted to 159 nM.

For the molecule `CC(=O)c1nn(CC(=O)N2[C@@H]3C[C@@H]3C[C@H]2C(=O)NCC2CC2)c2ncccc12` [Example 1, (1R,3S,5R)-2-[2-(3-Acetyl-pyrazolo[3,4-b]pyridin-1-yl)-acetyl]-2-aza-bicyclo[3.1.0]hexane-3-carboxylic acid cyclopropylmethyl-amide], the half-maximal inhibitory concentration (IC50) was found to be 4790 nM.

Turning to `CC(=O)c1nn(CC(=O)N2[C@@H]3C[C@@H]3C[C@H]2C(=O)NCC2C(C)(C)C2(C)C)c2ncccc12` [Example 2, (1R,3S,5R)-2-[2-(3-Acetyl-pyrazolo[3,4-b]pyridin-1-yl)-acetyl]-2-aza-bicyclo[3.1.0] hexane-3-carboxylic acid (2,2,3,3-tetramethyl-cyclopropylmethyl)-amide], the IC50 is 1850 nM.

Staying with this test, now noted: IC50, Factor D inhibition data using Method 1; recombinant human factor D 10 nM, substrate Z-Lys-thiobenzyl, fluorescence.
`CC1CCC(CNC(=O)[C@@H]2C[C@H]3C[C@H]3N2C(=O)Cn2nc(C(N)=O)c3ccccc32)C1` (single isomer, unassigned; dia 2) [Example 90]: the IC50 is 53 nM.

Take `CC(=O)c1nn(CC(=O)N2[C@@H]3C[C@@H]3C[C@H]2C(=O)NCC2C(C)C2(Cl)Cl)c2ccc(OCc3ncccn3)cc12` (single isomer, unassigned; dia 2) [Example 109, (1R,3S,5R)-2-{2-[3-Acetyl-5-(pyrimidin-2-ylmethoxy)-indazol-1-yl]-acetyl}-2-aza-bicyclo[3.1.0] hexane-3-carboxylic acid ((1R,3S) or (1S,3R)-2,2-dichloro-3-methyl-cyclopropylmethyl)-amide-Dia 2]: the IC50 is 49 nM.

Regarding `CC(=O)c1nn(CC(=O)N2[C@@H]3C[C@@H]3C[C@H]2C(=O)NC(C)C2CC2(Cl)Cl)c2ccc(OCc3ncccn3)cc12` (single isomer, unassigned; dia 3) [Example 34], the IC50 is 513 nM.

For `NC(=O)c1nn(CC(=O)N2[C@@H]3C[C@@H]3C[C@H]2C(=O)NC(CO)C2CC2(Cl)Cl)c2ccccc12` (single isomer, unassigned; dia 3) [Example 50], the half-inhibitory concentration (IC50) worked out at 7300 nM.

`CC(=O)c1nn(CC(=O)N2[C@@H]3C[C@@H]3C[C@H]2C(=O)NC(C)C2CC2(Cl)Cl)c2ccc(OCc3ncccn3)cc12` (single isomer, unassigned; dia 4) [Example 35]: the IC50 was found to be 324 nM.

As for `NC(=O)c1nn(CC(=O)N2[C@@H]3C[C@@H]3C[C@H]2C(=O)NC(CO)C2CC2(Cl)Cl)c2ccccc12` (single isomer, unassigned; dia 4) [Example 51], the IC50 was 246 nM.

For the molecule `CC1CCC(CNC(=O)[C@@H]2C[C@H]3C[C@H]3N2C(=O)Cn2nc(C(N)=O)c3ccccc32)C1` (single isomer, unassigned; dia 4) [Example 91], the concentration for half-maximal inhibition (IC50) is 46 nM.

(Values after patent US9468661B2, “Pyrrolidine derivatives and their use as complement pathway modulators” (priority 2012, dated 2016).)
